Experimental data published in patent US20210253598A1, “ARYL ANNULATED MACROCYCLIC INDOLE DERIVATIVES” (priority 2017, published 2021).
“And” between values parts separate entries of the source, which are not always exact repeats. Equal entries are not always repeated. Structures can show the parent of a compound that is named as a salt. Where two headings read alike, the source gives them in different places.

Assays:
AMO-1 = test: Anti-proliferative effect in AMO-1 cells, CellTiter-Glo (Assay 7); assay type: cell-based
Method: Assessment of the Anti-Proliferative Effect of Compounds in Different Cell Lines
The impact of compounds on the proliferation of different cell lines was assessed using the CellTiter-Glo® Luminescent Cell Viability reagent from Promega (G7573).
In parallel, cells were plated in a reference (day 0) plate for time zero determination. Cells were incubated in a humidified incubator at 37° C. overnight.
Rim wells were excluded. The cells were incubated for 72 hours in a humidified incubator at 37° C. The day 0 plate was measured by adding 30 μL/well of CTG solution (CellTiter-Glo® Luminescent Cell Viability reagent, Promega G7573) to time zero wells in the reference plate followed by a 10 minutes incubation and luminescence reading at 0.1 ms. using the PHERAstar FS microplate reader (BMG Labtech).
After 72 hours incubation, the treated plates were measured in the same way as the day 0 plate mentioned above. The Bella DRC Master Sheet was used to calculate IC50s, with CI=day 0 values and C0=DMSO control values.

MCL-1 = MCL-1 (Homo sapiens, UniProt Q07820, K194A/K197A/R201A); test: Protein-protein interaction assay MCL-1/Noxa BH3 peptide, TR-FRET (MCL-1 assay, Assay 1); assay type: binding; conditions: MCL-1 Assay [M] (median), MBP-MCL-1 / Noxa BH3 peptide
Chain of MCL-1 (Q07820 173-321 K194A/K197A/R201A, looked up): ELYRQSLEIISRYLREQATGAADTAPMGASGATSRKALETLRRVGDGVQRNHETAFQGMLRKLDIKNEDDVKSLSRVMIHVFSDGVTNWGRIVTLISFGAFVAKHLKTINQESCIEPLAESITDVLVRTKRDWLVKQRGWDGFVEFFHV
Summary of the method: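 TR-FRET competition between compounds and a biotin-PEG Noxa BH3 tracer for 1 nM MBP-MCL-1 (residues 173-321). Incubation was 1 h at 22 °C in the dark, then overnight at 4 °C, in 50 mM Tris pH 7 buffer with KF and DTT, after a 10-min compound pre-equilibration. Normalized ratios were fitted with a 4-parameter Hill equation to give IC50.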

MV-4-11 = test: Anti-proliferative effect in MV-4-11 cells, CellTiter-Glo (Assay 7); assay type: cell-based; conditions: several values per example
Summary of the method: (§1)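 Overnight seeding at 37 °C, then 72 h treatment with compound; day 0 plate read at start. Luminescent ATP-based viability readout (CellTiter-Glo). IC50 normalised between day 0 and DMSO values.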

SUDHL5 [1] = test: Induction of cytotoxicity in SUDHL5 cells, CellTiter-Glo (Assay 6); assay type: cell-based; conditions: SUDHL5, 5 hours incubation, median, read-out: Cytotox SUDHL5 [M] (median)
Summary of the method: (§2)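 Luminescent ATP readout (CellTiter-Glo, 15 min at room temperature) quantifies cytotoxicity after a 5 h compound exposure at 37 °C.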

SUDHL5 [2] = test: Induction of caspase-3/7 activity in SUDHL5 cells (Assay 4); assay type: cell-based
Summary of the method: (§3)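 Luminescent Caspase-Glo 3/7 read-out in SUDHL5 and SUDHL10 cells after 3 h compound exposure at 37 °C, followed by 1 h reagent incubation.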

SUDHL10 [3] = test: Induction of caspase-3/7 activity in SUDHL10 cells (Assay 4); assay type: cell-based
Summary of the method: as §3

SUDHL10 [4] = test: Induction of cytotoxicity in SUDHL10 cells, CellTiter-Glo (Assay 6); assay type: cell-based; conditions: SUDHL10, 5 hours incubation, median, read-out: Cytotox SUDHL10 [M] (median)
Summary of the method: as §2

SUDHL5 [5] = test: Anti-proliferative effect in SUDHL5 cells, CellTiter-Glo (Assay 7); assay type: cell-based
Summary of the method: as §1

A2780 = test: Anti-proliferative effect in A2780 cells, CellTiter-Glo (Assay 7); assay type: cell-based; conditions: several values per example
Summary of the method: as §1

[6] = Homo sapiens, AMO1, 72 h, AMO-1, 72 hours incubation, CellTiter-Glo; several values per example; read-out: Antiproli AMO-1
[7] = Homo sapiens, MV4-11, 72 h, MV-4-11, 72 hours incubation, CellTiter-Glo, read-out: Antiproli MV-4-11
[8] = Homo sapiens, SU-DHL-5, 3 h, SUDHL5, 3 hours treatment, Caspase-Glo 3/7, median, read-out: Caspase SUDHL5 [M] (median)
[9] = Homo sapiens, SU-DHL10, 3 h, SUDHL10, 3 hours treatment, Caspase-Glo 3/7, median, read-out: Caspase SUDHL10 [M] (median)
[10] = Homo sapiens, SU-DHL-5, 72 h, SUDHL5, 72 hours incubation, CellTiter-Glo, median, read-out: Antiproli SUDHL5 [M] (median)
[11] = Homo sapiens, A2780, 72 h, A2780, 72 hours incubation, CellTiter-Glo, read-out: Antiproli A2780
[12] = read-out: Antiproli AMO-1; AMO-1, 72 hours incubation, CellTiter-Glo; several values per example
[13] = read-out: Caspase SUDHL5 [M] (median), SUDHL5, 3 hours treatment, Caspase-Glo 3/7
[14] = read-out: Caspase SUDHL10 [M] (median), SUDHL10, 3 hours treatment, Caspase-Glo 3/7
[15] = read-out: Antiproli MV-4-11, MV-4-11, 72 hours incubation, CellTiter-Glo
[16] = read-out: Antiproli SUDHL5 [M] (median), SUDHL5, 72 hours incubation, CellTiter-Glo
[17] = read-out: Antiproli A2780, A2780, 72 hours incubation, CellTiter-Glo
[18] = AMO-1, 72 hours incubation, CellTiter-Glo; several values per example; read-out: Antiproli AMO-1
[19] = MV-4-11, 72 hours incubation, CellTiter-Glo, read-out: Antiproli MV-4-11
[20] = A2780, 72 hours incubation, CellTiter-Glo, read-out: Antiproli A2780

Structure (SMILES) | IC50 (MCL-1) [M] | IC50 (AMO-1; [12]) | IC50 (SUDHL5 [1]) [M] | EC50 (SUDHL5 [2]; [13]) [M] | EC50 (SUDHL10 [3]; [14]) [M] | IC50 (SUDHL10 [4]) [M] | IC50 (MV-4-11; [15]) | IC50 (SUDHL5 [5]; [16]) [M] | IC50 (A2780; [17]) [M] | IC50 (AMO-1; [18]) [µM] | IC50 (MV-4-11; [19]) | IC50 (A2780; [20]) [M] | further results
CCc1c2c(nn1C)COCc1ccccc1Cn1c(C(=O)O)c(CCCOc3cccc4cc(F)ccc34)c3ccc(Cl)c-2c31 (racemic) [Example 54, (rac)-3-Chloro-4-ethyl-17-{3-[(6-fluoronaphthalen-1-yl)oxy]propyl}-5-methyl-5,7,9,14-tetrahydroindolo[7,1-fg]pyrazolo[3,4-d][2,8]benzoxazacycloundecine-16-carboxylic Acid] | 8.3e-10 |  |  |  |  |  |  |  |  |  |  |  | IC50 (AMO-1; [6]): 1.77 µM; IC50 (MV-4-11; [7]): 3.83e-06 M; IC50 (SUDHL5 [1]; Homo sapiens, SU-DHL-5, 5 h): 9.3e-07 M; EC50 (SUDHL5 [2]; [8]): 8.4e-07 M; EC50 (SUDHL10 [3]; [9]): 1.8e-06 M; IC50 (SUDHL10 [4]; Homo sapiens, SU-DHL10, 5 h): 2.6e-06 M; IC50 (SUDHL5 [5]; [10]): 1.4e-06 M; IC50 (A2780; [11]): 6.59e-06 M
CCc1nn(C)c2c1-c1c(Cl)ccc3c(CCCOc4cccc5cc(F)ccc45)c(C(=O)O)n(c13)Cc1ccccc1COC2 (racemic) [Example 57, (rac)-3-Chloro-4-ethyl-17-{3-[(6-fluoronaphthalen-1-yl)oxy]propyl}-6-methyl-6,7,9,14-tetrahydro-indolo[7,1-fg]pyrazolo[3,4-d][2,8]benzoxazacycloundecine-16-carboxylic Acid] | 2.7e-09 |  |  |  |  |  |  |  |  |  |  |  | IC50 (AMO-1; [6]): 2.65 µM; IC50 (MV-4-11; [7]): 2.19e-06 M; EC50 (SUDHL5 [2]; [8]): 1.5e-06 M; EC50 (SUDHL10 [3]; [9]): 4.3e-06 M; IC50 (SUDHL10 [4]; Homo sapiens, SU-DHL10, 5 h): 4.6e-06 M; IC50 (SUDHL5 [5]; [10]): 2.4e-06 M; IC50 (A2780; [11]): 7.02e-06 M
Cc1c2c(nn1C)CN(S(=O)(=O)CCN1CCOCC1)Cc1ccccc1Cn1c(C(=O)O)c(CCCOc3cccc4ccccc34)c3cccc-2c31 (single isomer, unassigned; enantiomer 1) [Example 31, (+)-4,5-Dimethyl-8-[2-(morpholin-4-yl)ethanesulfonyl]-17-{3-[(naphthalen-1-yl)oxy]propyl}-7,8,9,14-tetrahydro-5H-indolo[1,7-bc]pyrazolo[4,3-e][2,8]benzodiazacycloundecine-16-carboxylic acid-N-ethylethanamine Salt (Enantiomer 1)] | 1.3e-08 | 5.93 µM | 5.3e-06 | 5.2e-06 | 9.7e-06 | > 7.8e-05 |  |  |  |  |  |  | IC50 (MV-4-11; Homo sapiens, MV4-11, 72 h, read-out: Antiproli MV-4-11 [M], MV-4-11, 72 hours incubation, CellTiter-Glo): 5.49e-06 M; IC50 (SUDHL5 [5]; Homo sapiens, SU-DHL-5, 72 h, read-out: Antiproli SUDHL5 [M] (median), SUDHL5, 72 hours incubation, CellTiter-Glo): 4.8e-06 M; IC50 (A2780; Homo sapiens, A2780, 72 h, read-out: Antiproli A2780 [M], A2780, 72 hours incubation, CellTiter-Glo): 6.72e-06 M
Cc1c2c(nn1C)CN(S(=O)(=O)CCN1CCOCC1)Cc1ccccc1Cn1c(C(=O)O)c(CCCOc3cccc4ccccc34)c3cccc-2c31 (single isomer, unassigned; enantiomer 2) [Example 32, (−)-4,5-Dimethyl-8-[2-(morpholin-4-yl)ethanesulfonyl]-17-{3-[(naphthalen-1-yl)oxy]propyl}-7,8,9,14-tetrahydro-5H-indolo[1,7-bc]pyrazolo[4,3-e][2,8]benzodiazacycloundecine-16-carboxylic acid-N-ethylethanamine Salt (Enantiomer 2)] | 1.8e-07 | 13.5 µM | > 3.3e-05 | > 3.3e-05 | > 3.3e-05 | > 3.3e-05 | 8.42e-06 M | 4.5e-06 | 1.08e-05 |  |  |  | 
Cc1c2c(nn1C)COCc1cccnc1Cn1c(C(=O)O)c(CCCOc3cccc4ccccc34)c3ccc(Cl)c-2c31 (single isomer, unassigned; enantiomer 2) [Example 41, 3-Chloro-4,5-dimethyl-17-[3-(naphthalen-1-yloxy)propyl]-5,7,9,14-tetrahydropyrazolo-[4′,3′:9,10]pyrido[3′,2′:3,4][1,6]oxazacycloundecino[8,7,6-hi]indole-16-carboxylic acid-N-ethylethanamine Salt (Enantiomer 2)] | 5.8e-09 | 8.4 µM and 11.2 µM | 6e-06 | 6.1e-06 | 1.6e-05 | 1.4e-05 | 1.59e-05 M and 8.2e-06 M | 5.2e-06 | > 3.3e-05 |  |  |  | 
CCc1nn(CCN2CCOCC2)c2c1-c1c(Cl)ccc3c(CCCOc4cccc5cc(F)ccc45)c(C(=O)O)n(c13)Cc1ccccc1COC2 (single isomer, unassigned; enantiomer 2) [Example 53, (+)-3-Chloro-4-ethyl-17-{3-[(6-fluoronaphthalen-1-yl)oxy]propyl}-6-[2-(morpholin-4-yl)ethyl]-6,7,9,14-tetrahydroindolo[7,1-fg]pyrazolo[3,4-d][2,8]benzoxazacycloundecine-16-carboxylic Acid (Enantiomer 2)] | 8.3e-09 |  | 2.3e-06 |  |  | 6.5e-06 |  |  |  | 9.44 | 4.91e-06 M and 8.2e-06 M | 8.15e-06 | EC50 (SUDHL5 [2]; SUDHL5, 3 hours treatment, Caspase-Glo 3/7, median, read-out: Caspase SUDHL5 [M] (median)): 1.8e-06 M; EC50 (SUDHL10 [3]; SUDHL10, 3 hours treatment, Caspase-Glo 3/7, median, read-out: Caspase SUDHL10 [M] (median)): 5.9e-06 M; IC50 (SUDHL5 [5]; SUDHL5, 72 hours incubation, CellTiter-Glo, median, read-out: Antiproli SUDHL5 [M] (median)): 2.8e-06 M
Cc1c2c(nn1C)COCc1ccccc1Cn1c(C(=O)O)c(CCCOc3cccc4cc(F)ccc34)c3ccc(F)c-2c31 (single isomer, unassigned; enantiomer 2) [Example 66, (+)-3-Fluoro-17-{3-[(6-fluoronaphthalen-1-yl)oxy]propyl}-4,5-dimethyl-5,7,9,14-tetrahydroindolo[7,1-fg]pyrazolo[3,4-d][2,8]benzoxazacycloundecine-16-carboxylic acid-N-ethylethanamine Salt (Enantiomer 2)] | 6.2e-09 | 7.13 µM and 7.07 µM | 4.1e-06 | 3.3e-06 | 1.2e-05 | 8.6e-06 |  | 3.6e-06 | > 3.3e-05 |  |  |  | 
CCc1c2c(nn1C)COCc1ccccc1Cn1c(C(=O)O)c(CCCOc3cccc4ccccc34)c3ccc(F)c-2c31 (single isomer, unassigned; enantiomer 2) [Example 72, (+)-4-Ethyl-3-fluoro-5-methyl-17-{3-[(naphthalen-1-yl)oxy]propyl}-5,7,9,14-tetrahydroindolo[7,1-fg]pyrazolo[3,4-d][2,8]benzoxazacycloundecine-16-carboxylic acid-N-ethylethanamine Salt (Enantiomer 2)] | 5.2e-09 | 18.9 µM | 8.5e-06 | 1.2e-05 | > 2.8e-05 | 2.6e-05 | 9.57e-06 M | 1.2e-05 | 1.5e-05 |  |  |  | 
Cc1c2c(nn1C)COCc1cccnc1Cn1c(C(=O)O)c(CCCOc3cccc4ccccc34)c3cccc-2c31 [Example 05] |  |  |  |  |  |  |  |  |  | 8.78 | 5.48e-06 M | 6.65e-06 | 
Cc1c2c(nn1C)COCc1cccnc1Cn1c(C(=O)O)c(CCCOc3cccc4ccccc34)c3cccc-2c31 [Example 06] |  |  |  |  |  |  |  |  |  | 19.9 | 5.38e-06 M | 8.66e-06 | 
